The values that follow are results of earlier work, collected in patent publication US20040126318A1, “Methods, formulations and kits for monitoring and diagnosing gastric emptying and gastroparesis, and formulations for determining gastrointestinal motility” (priority 2002, published 2004).

In the case of `CCN(CC)CCNC(=O)c1cc(Cl)c(N)cc1OC` [Metochlopramide], where the note is “patients treated with this drug”, the “patients with serious side effects (drowsiness, nightmares, depression, Parkinsonism)” value is listed as “up to 50%”.
Consider `COc1cc(N)c(Cl)cc1C(=O)NC1CCN(CCCOc2ccc(F)cc2)CC1OC` (centres unmarked) [cisapride], for which the cardiac side effects result (reason for removal from the market by the FDA) is “produced severe and sometimes fatal arrhythmias”.
